Assay results reported in PMC6100082, “Pyridine-Ureas as Potential Anticancer Agents: Synthesis and In Vitro Biological Evaluation” (Molecules : A Journal of Synthetic Chemistry and Natural …, 2018).

What was measured:
COLO 205 = experiment: NCI one-dose SRB assay (Colon Cancer); assay type: cell-based, human
Method: (§1) The structures of all the newly prepared pyridine-ureas 8a–n were submitted to the National Cancer Institute (NCI) Developmental Therapeutic Program. Eight compounds 8b, 8d, 8e, 8i, 8j and 8l–n were selected to be examined for their in vitro growth inhibitory activity. The anticancer assays were carried out according to the protocol of the Drug Evaluation Branch, NCI, Bethesda. The selected pyridine-ureas were tested at one dose primary anticancer assay against a panel of approximately 58 cancer lines (concentration 10^−5 M). The tested human cancer cell lines emerged from nine different cancer subtypes: leukemia, colon, melanoma, ovarian, lung, CNS, renal, breast and prostate cancers. The sulforhodamine B (SRB) protein assay was adopted to estimate the cell viability and growth. The results were reported as mean-graph of the percentage growth of the treated cells, and presented as percentage growth inhibition (GI%) caused by the test compounds (Table 2).
(§2) The anticancer assays were performed in accordance with the protocol of the Drug Evaluation Branch, NCI, Bethesda. A 48 h drug exposure protocol was used and sulforhodamine B (SRB) protein assay was applied to estimate the cell viability and growth, as reported earlier.

HCT-116 = experiment: NCI one-dose SRB assay (Colon Cancer); assay type: cell-based, human
Method: as §1, §2

HCT-15 = experiment: NCI one-dose SRB assay (Colon Cancer); assay type: cell-based, human
Method: as §1, §2

KM12 = experiment: NCI one-dose SRB assay (Colon Cancer); assay type: cell-based, human
Method: as §1, §2

HCC-2998 = experiment: NCI one-dose SRB assay (Colon Cancer); assay type: cell-based, human
Method: as §1, §2

HT29 = experiment: NCI one-dose SRB assay (Colon Cancer); assay type: cell-based, human
Method: as §1, §2

SW-620 = experiment: NCI one-dose SRB assay (Colon Cancer); assay type: cell-based, human
Method: as §1, §2

NCI 58 cell line panel = experiment: NCI one-dose SRB assay, whole panel / subpanel summary; assay type: cell-based, human
Method: as §1, §2

SF-539 = experiment: NCI one-dose SRB assay (CNS Cancer); assay type: cell-based, human
Method: as §1, §2

SNB-75 = experiment: NCI one-dose SRB assay (CNS Cancer); assay type: cell-based, human
Method: as §1, §2

U251 = experiment: NCI one-dose SRB assay (CNS Cancer); assay type: cell-based, human
Method: as §1, §2

SF-295 = experiment: NCI one-dose SRB assay (CNS Cancer); assay type: cell-based, human
Method: as §1, §2

SNB-19 = experiment: NCI one-dose SRB assay (CNS Cancer); assay type: cell-based, human
Method: as §1, §2

BT-549 = experiment: NCI one-dose SRB assay (Breast Cancer); assay type: cell-based, human
Method: as §1, §2

MCF7 = experiment: NCI one-dose SRB assay (Breast Cancer); assay type: cell-based, human
Method: as §1, §2

MDA-MB-231 = experiment: NCI one-dose SRB assay (Breast Cancer); assay type: cell-based, human
Method: as §1, §2

T-47D = experiment: NCI one-dose SRB assay (Breast Cancer); assay type: cell-based, human
Method: as §1, §2

MDA-MB-468 = experiment: NCI one-dose SRB assay (Breast Cancer); assay type: cell-based, human
Method: as §1, §2

HS 578T = experiment: NCI one-dose SRB assay (Breast Cancer); assay type: cell-based, human
Method: as §1, §2

OVCAR-8 = experiment: NCI one-dose SRB assay (Ovarian Cancer); assay type: cell-based, human
Method: as §1, §2

SK-OV-3 = experiment: NCI one-dose SRB assay (Ovarian Cancer); assay type: cell-based, human
Method: as §1, §2

NCI/ADR-RES = experiment: NCI one-dose SRB assay (Ovarian Cancer); assay type: cell-based, human
Method: as §1, §2

IGROV1 = experiment: NCI one-dose SRB assay (Ovarian Cancer); assay type: cell-based, human
Method: as §1, §2

OVCAR-5 = experiment: NCI one-dose SRB assay (Ovarian Cancer); assay type: cell-based, human
Method: as §1, §2

OVCAR-4 = experiment: NCI one-dose SRB assay (Ovarian Cancer); assay type: cell-based, human
Method: as §1, §2

OVCAR-3 = experiment: NCI one-dose SRB assay (Ovarian Cancer); assay type: cell-based, human
Method: as §1, §2

[1] = Homo sapiens, 10 μM, read-out: Percentage growth inhibition (GI%)

SMILES: COc1ccc(-c2ccc(NC(=O)Nc3ccc(Cl)cc3)c(C)n2)cc1 [Compound 8d, 1-(4-Chlorophenyl)-3-(6-(4-methoxyphenyl)-2-methylpyridin-3-yl) Urea]
- Growth Percent (COLO 205; COLO 205, 1.00E-5 Molar): 102.39%
- inhibition at 10 µM (COLO 205; Homo sapiens, COLO 205, 10 μM, read-out: Percentage growth inhibition (GI%)): < 10%
- Growth Percent (HCT-116; HCT-116, 1.00E-5 Molar): 76.10%
- inhibition at 10 µM (HCT-116; Homo sapiens, HCT-116, 10 μM, read-out: Percentage growth inhibition (GI%)): 24%
- Growth Percent (HCT-15; HCT-15, 1.00E-5 Molar): 85.74%
- inhibition at 10 µM (HCT-15; Homo sapiens, HCT-15, 10 μM, read-out: Percentage growth inhibition (GI%)): 15%
- inhibition at 10 µM (KM12; Homo sapiens, KM12, 10 μM, read-out: Percentage growth inhibition (GI%)): < 10%
- Growth Percent (KM12; KM12, 1.00E-5 Molar): 93.09%
- Growth Percent (HCC-2998; HCC-2998, 1.00E-5 Molar): 104.24%
- inhibition at 10 µM (HCC-2998; Homo sapiens, HCC-2998, 10 μM, read-out: Percentage growth inhibition (GI%)): < 10%
- Growth Percent (HT29; HT29, 1.00E-5 Molar): 85.13%
- inhibition at 10 µM (HT29; Homo sapiens, HT-29, HT29, 10 μM, read-out: Percentage growth inhibition (GI%)): 15%
- inhibition at 10 µM (SW-620; Homo sapiens, SW-620, 10 μM, read-out: Percentage growth inhibition (GI%)): 23%
- Growth Percent (SW-620; SW-620, 1.00E-5 Molar): 77.06%
- inhibition at 10 µM (NCI 58 cell line panel; Homo sapiens, 10 μM, one dose, read-out: mean inhibition (mean % growth inhibition over NCI 58 cell line panel)): 14%
- Mean Growth Percent (NCI 58 cell line panel; One Dose Mean Graph, 1.00E-5 Molar): 86.24%
- melting point: 231 to 232 °C
- inhibition at 10 µM (SF-539; Homo sapiens, SF-539, 10 μM, read-out: Percentage growth inhibition (GI%)): 16%
- Growth Percent (SF-539; SF-539, 1.00E-5 Molar): 84.16%
- inhibition at 10 µM (SNB-75; Homo sapiens, SNB-75, 10 μM, read-out: Percentage growth inhibition (GI%)): 16%
- Growth Percent (SNB-75; SNB-75, 1.00E-5 Molar): 84.87%
- inhibition at 10 µM (U251; Homo sapiens, U-251, U251, 10 μM, read-out: Percentage growth inhibition (GI%)): 24%
- Growth Percent (U251; U251, 1.00E-5 Molar): 76.51%
- inhibition at 10 µM (SF-295; Homo sapiens, SF-295, 10 μM, read-out: Percentage growth inhibition (GI%)): < 10%
- Growth Percent (SF-295; SF-295, 1.00E-5 Molar): 97.10%
- inhibition at 10 µM (SNB-19; Homo sapiens, SNB-19, 10 μM, read-out: Percentage growth inhibition (GI%)): < 10%
- Growth Percent (SNB-19; SNB-19, 1.00E-5 Molar): 94.20%
- Growth Percent (BT-549; BT-549, 1.00E-5 Molar): 96.71%
- inhibition at 10 µM (BT-549; Homo sapiens, BT-549, 10 μM, read-out: Percentage growth inhibition (GI%)): < 10%
- inhibition at 10 µM (MCF7; Homo sapiens, MCF7, 10 μM, read-out: Percentage growth inhibition (GI%)): 26%
- Growth Percent (MCF7; MCF7, 1.00E-5 Molar): 74.74%
- inhibition at 10 µM (MDA-MB-231; Homo sapiens, MDA-MB-231, 10 μM, read-out: Percentage growth inhibition (GI%)): < 10%
- Growth Percent (MDA-MB-231; MDA-MB-231/ATCC, 1.00E-5 Molar): 97.34%
- Growth Percent (T-47D; 1.00E-5 Molar): 72.90%
- inhibition at 10 µM (T-47D; Homo sapiens, T47D, 10 μM, read-out: Percentage growth inhibition (GI%)): 28%
- inhibition at 10 µM (MDA-MB-468; Homo sapiens, MDA-MB-468, 10 μM, read-out: Percentage growth inhibition (GI%)): < 10%
- Growth Percent (MDA-MB-468; MDA-MB-468, 1.00E-5 Molar): 91.54%
- Growth Percent (HS 578T; 1.00E-5 Molar): 98.36%
- inhibition at 10 µM (HS 578T; [1]): < 10%
- inhibition at 10 µM (OVCAR-8; Homo sapiens, OVCAR-8, 10 μM, read-out: Percentage growth inhibition (GI%)): < 10%
- Growth Percent (OVCAR-8; OVCAR-8, 1.00E-5 Molar): 93.26%
- inhibition at 10 µM (SK-OV-3; Homo sapiens, SK-OV-3, 10 μM, read-out: Percentage growth inhibition (GI%)): 18%
- Growth Percent (SK-OV-3; SK-OV-3, 1.00E-5 Molar): 82.66%
- Growth Percent (NCI/ADR-RES; 1.00E-5 Molar): 92.03%
- inhibition at 10 µM (NCI/ADR-RES; [1]): < 10%
- inhibition at 10 µM (IGROV1; Homo sapiens, IGROV-1, IGROV1, 10 μM, read-out: Percentage growth inhibition (GI%)): 17%
- Growth Percent (IGROV1; IGROV1, 1.00E-5 Molar): 83.85%
- inhibition at 10 µM (OVCAR-5; Homo sapiens, OVCAR-5, 10 μM, read-out: Percentage growth inhibition (GI%)): < 10%
- Growth Percent (OVCAR-5; OVCAR-5, 1.00E-5 Molar): 93.01%
- inhibition at 10 µM (OVCAR-4; Homo sapiens, OVCAR-4, 10 μM, read-out: Percentage growth inhibition (GI%)): 26%
- Growth Percent (OVCAR-4; OVCAR-4, 1.00E-5 Molar): 74.67%
- inhibition at 10 µM (OVCAR-3; Homo sapiens, OVCAR-3, 10 μM, read-out: Percentage growth inhibition (GI%)): < 10%
- Growth Percent (OVCAR-3; OVCAR-3, 1.00E-5 Molar): 101.66%
